Data taken from PMC11768629, “Potential Interaction of Pinocembrin with Drug Transporters and Hepatic Drug-Metabolizing Enzymes” (Pharmaceuticals, 2025).
“And” between values parts separate entries of the source, which are not always exact repeats. Equal entries are not always repeated. Where two headings read alike, the source gives them in different places.

How the values were obtained:
[1] = system: BCRP; set-up: method as in PMID 22263589, PMID 23497885; conditions: cited from earlier work
[2] = target: T1, BCRP (Homo sapiens, UniProt Q9UNQ0); assay: BCRP-mediated 3H-estrone sulfate transepithelial transport in Caco-2 cell monolayers; assay type: cell-based; conditions: pinocembrin, compared with vehicle control
T1 construct: Caco-2 cell monolayers, which express both P-gp and BCRP; host or cells: Caco-2
T1 sequence (Q9UNQ0 whole entry): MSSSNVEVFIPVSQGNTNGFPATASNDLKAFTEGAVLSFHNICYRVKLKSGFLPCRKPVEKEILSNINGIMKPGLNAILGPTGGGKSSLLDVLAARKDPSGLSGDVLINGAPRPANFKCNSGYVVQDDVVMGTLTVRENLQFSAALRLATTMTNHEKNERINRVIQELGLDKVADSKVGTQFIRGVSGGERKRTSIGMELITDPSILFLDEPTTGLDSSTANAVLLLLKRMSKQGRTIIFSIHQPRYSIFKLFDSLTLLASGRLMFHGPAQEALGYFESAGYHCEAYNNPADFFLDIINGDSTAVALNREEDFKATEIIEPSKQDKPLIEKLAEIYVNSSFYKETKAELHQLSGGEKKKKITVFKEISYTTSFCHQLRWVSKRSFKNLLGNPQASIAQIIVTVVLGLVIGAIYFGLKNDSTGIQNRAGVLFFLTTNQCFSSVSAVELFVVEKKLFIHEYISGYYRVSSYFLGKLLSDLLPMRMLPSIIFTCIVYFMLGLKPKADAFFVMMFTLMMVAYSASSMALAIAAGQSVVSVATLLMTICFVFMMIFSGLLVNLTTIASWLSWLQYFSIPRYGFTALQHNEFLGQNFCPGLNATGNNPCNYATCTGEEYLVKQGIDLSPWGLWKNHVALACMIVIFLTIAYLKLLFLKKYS
Protocol: The interactions of pinocembrin with P-gp and BCRP were determined by the measurement of P-gp-mediated ^3H-digoxin transport and BCRP-mediated ^3H-estrone sulfate transport in Caco-2 cell monolayers, which express both P-gp and BCRP [20].
P-gp- and BCRP-mediated transport were measured by the transepithelial transport of their substrates (^3H-digoxin for P-gp and ^3H-estrone sulfate for BCRP) in Caco-2 cell monolayers. […] Caco-2 cells were cultured on membrane inserts (Corning Inc., Corning, NY, USA) for 21 days. Cell monolayers showing transepithelial electrical resistance values > 600 Ω.cm^2 were included in the experiment. […] The basolateral side was replaced with a transport buffer. The sample from the basolateral side was transferred to vials containing a liquid scintillation cocktail to measure radioactivity by a β-counter (Packard BioScience, Wellesley, MA, USA).

[3] = system: CYP2A6; set-up: method as in PMID 34069400, doi:10.5562/cca3652, PMID 35721953; conditions: cited from earlier work
[4] = target: T2, hOAT3 (Homo sapiens, UniProt Q8TCC7); assay: hOAT3-mediated 6-CF uptake in hOAT3-MDCK cells (inhibitory potency and kinetics); assay type: cell-based
T2 construct: host or cells: MDCK
T2 sequence (Q8TCC7 1-542): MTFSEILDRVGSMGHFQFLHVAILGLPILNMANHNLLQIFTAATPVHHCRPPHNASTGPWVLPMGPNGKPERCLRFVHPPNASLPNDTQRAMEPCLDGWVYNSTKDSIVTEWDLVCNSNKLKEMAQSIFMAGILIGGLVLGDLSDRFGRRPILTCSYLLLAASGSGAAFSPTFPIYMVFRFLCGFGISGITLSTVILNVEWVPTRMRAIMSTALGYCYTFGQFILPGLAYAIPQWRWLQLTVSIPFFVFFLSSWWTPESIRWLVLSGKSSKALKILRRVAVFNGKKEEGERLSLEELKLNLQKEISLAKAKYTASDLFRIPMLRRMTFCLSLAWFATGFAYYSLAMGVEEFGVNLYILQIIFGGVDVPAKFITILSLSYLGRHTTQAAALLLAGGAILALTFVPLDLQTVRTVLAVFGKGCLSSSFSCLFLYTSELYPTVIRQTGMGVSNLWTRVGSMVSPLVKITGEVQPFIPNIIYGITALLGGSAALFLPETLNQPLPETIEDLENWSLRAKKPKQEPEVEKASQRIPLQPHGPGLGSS
Protocol: To determine the inhibitory potency of pinocembrin on the hOAT1 and hOAT3 function, the IC50 of pinocembrin on the hOAT1- and hOAT3-mediated uptake of 6-carboxyfluorescein (6-CF), a fluorescent substrate of hOAT1 and hOAT3, was determined. […] Next, the inhibitory mechanism of pinocembrin was determined using a kinetic study.
The hOAT1-MDCK and hOAT3-MDCK cell monolayers were incubated at 37 °C with an uptake buffer containing 6-CF (10 µM), a fluorescent substrate of hOAT1 and hOAT3 [12], and pinocembrin (0–50 µM) for 10 min. Uptake was terminated by removing the uptake solution and washing four times with a cold buffer. The cell monolayers were lysed with 0.4 N NaOH for 30 min. The samples were transferred to 96-black well plates to measure the fluorescence intensity using a fluorescent plate reader (EnVision XCite 2105 Multimode Plate Reader, Packard BioScience, Wellesley, MA, USA) at excitation and emission wavelengths of 490 and 510, respectively. The IC50 of pinocembrin on hOAT1- and hOAT3-mediated 6-CF uptake was calculated in GraphPad Prism using sigmoidal concentration–response analysis using the equation Y = 100/(IC50/X)^HillSlope (X is the concentration, while Y is the normalized response). In addition, the estimated inhibitory constant (Ki) was calculated using the Cheng–Prusoff equation.
The hOAT1-MDCK and hOAT3-MDCK cell monolayers were incubated with 6-CF at increasing concentrations (0 to 100 µM) and in the absence or presence of 5 µM pinocembrin for 10 min. The kinetic parameters of 6-CF transport by hOAT1 and hOAT3 in the presence of pinocembrin were determined using nonlinear regression analysis to fit the Michaelis–Menten kinetic equation: V=Vmax[S]/Km+[S] where V is the rate of 6-CF transport, Vmax is the maximum rate of 6-CF transport, Km is the 6-CF concentration that results in half the maximum transport (Michaelis–Menten constant), and [S] is the concentration of 6-CF in the transport reaction.

[5] = set-up: method as in PMID 25814318; conditions: cited from earlier work
[6] = system: CYP3A4; conditions: cited from earlier work
[7] = system: P-gp; conditions: cited from earlier work
[8] = system: hOAT1-MDCK cells; assay: Cell viability assay (MTT) in hOAT1-MDCK cells; assay type: cell-based, canine
Protocol: The hOAT1-MDCK cells and hOAT3-MDCK cells were treated with 1, 10, and 50 μM pinocembrin for 24 h, followed by a measurement of ^3H-PAH and ^3H-estrone sulfate cellular accumulation. […] The inhibitory effect of pinocembrin occurred in a concentration-dependent manner.
We determined whether the inhibitory effect of pinocembrin on hOAT1 and hOAT3. We studied whether pinocembrin could reduce the renal toxicity of tenofovir, a substrate of hOAT1 and hOAT3 known for inducing renal tubular dysfunction.
The confluent cells in 96-well plates were treated with pinocembrin for 48 h at 37 °C. After that, the cells were incubated with 0.5 mg/mL MTT solution for four hours. The MTT solution was removed, and DMSO (100 µL) was added to dissolve the crystal formazan. The formazan content was detected at a wavelength of 570 nm using a microplate reader. Cell viability was reported as a percentage of the vehicle-treated cells.

[9] = 80 mg intravenous injection, human subjects

transport of 3H-estrone sulfate from the apical to basolateral side [2]: did not affect
Vmax of hOAT3-mediated 6-CF uptake, With Pinocembrin ([4]; 5 μM pinocembrin, 6-CF up to 100 μM, hOAT3-MDCK cells): 11.32 ± 2.33 nmol/min/cm^2
IC50 ([4]; hOAT3-MDCK cells, 6-CF 10 µM, mean ± S.D., three experiments): 2.38 ± 0.98 µM
Ki ([4]; hOAT3-MDCK cells, estimated with the Cheng–Prusoff equation): 1.3 ± 0.24 µM
inhibitory mechanism on hOAT3 transport function ([4]; kinetic study, 5 μM pinocembrin: Km increased, Vmax unchanged): competitively
Compound: O=C1C[C@@H](c2ccccc2)Oc2cc(O)cc(O)c21 [pinocembrin]
effect on BCRP [1]: weakly inhibited
effect on the activity of CYP2A6 [3]: does not affect
maximal plasma concentration ([5]; 40 mg intravenous injection): 0.6 µg/mL and 2.3 µM
maximal plasma concentration ([5]; 80 mg intravenous injection): 4.7 µM
T1/2 [5, 9]: 55 min
maximal plasma concentration (Cmax) [5, 9]: 1220 ng/mL
observed plasma concentration ([5]; phase I clinical trials): 3 to 10 µM
effect on the activity of CYP3A4 [6]: inhibits the activities
effect on the activity of CYP3A4 ([6]; concentrations of 1–5 µM): shows an inhibitory effect
effect on the P-gp in the blood–brain barrier (BBB) [7]: little effect
effect on the function of P-gp [7]: did not inhibit
cell viability ([8]; pinocembrin 1, 10 and 50 μM, compared to vehicle-treated cells): did not affect cell viability
cell viability on co-treatment with tenofovir ([8]; tenofovir plus pinocembrin, 48 h, compared with tenofovir-treated cells alone): considerably increased cell viability
